According to patent US20260308172A1, “TRICYCLIC COMPOUNDS FOR TREATMENT OF BACTERIAL INFECTIONS” (priority 2023, published 2026):
In brackets after ≈: the same amount, converted by molar mass.

Key:
[1] = system: Escherichia coli ATCC 25922; test: Minimal Inhibitory Concentration (MIC) assay, Escherichia coli ATCC 25922; type: cell-based; conditions: ATCC25922, 20 h, read-out: MIC Escherichia coli ATCC25922
Summary of the method: (§1)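 Broth microdilution in cation-adjusted Mueller Hinton broth with 2-fold serial compound dilutions, inoculum 5×10^5 CFU/mL. Plates incubated 20 h at 35 °C in ambient air. MIC (μg/mL) is the lowest concentration preventing visible growth; K. pneumoniae 43816 is a rifampin-resistant mutant.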

[2] = system: Klebsiella pneumonia ATCC 43816; test: Minimal Inhibitory Concentration (MIC) assay, Klebsiella pneumonia ATCC 43816; type: cell-based; conditions: Klebsiella pneumoniae, ATCC43816, 20 h, read-out: MIC Klebsiella pneumoniae ATCC43816
Summary of the method: as §1

[3] = Human Microsome Stability Assay; type: in vitro ADME; conditions: 1 μM compound, 0.5 mg/mL liver microsomal protein, 1 mM NADPH, pH 7.4, 37° C., 0-30 minutes; for CLint scaled at 1 µM: human, liver microsomes, read-out: Clearance of Human microsome
Description: The human microsomal stability assay is used for early assessment of metabolic stability of compounds of present invention in human liver microsomes. Human liver microsomes (Cat. NO.: 452117, Corning, USA) were pre-incubated with test compound for 10 minutes at 37° C. in 100 mM potassium phosphate buffer, pH 7.4. The reactions were initiated by adding NADPH regenerating system. The final incubation mixtures contained 1 μM compound, 0.5 mg/mL liver microsomal protein, 1 mM MgCl2 and 1 mM NADPH in 100 mM potassium phosphate buffer, pH 7.4. After incubation times of 0, 3, 6, 9, 15 and 30 minutes at 37° C., 300 μL of cold acetonitrile (including internal standard) was added to 100 μL incubation mixture to terminate the reaction. Following precipitation and centrifugation, the amount of compound remaining in the samples were determined by LC-MS/MS. Controls of no NADPH regenerating system at zero and 30 minutes were also prepared and analyzed.

Compound | MIC [1] [µg/mL] | MIC [2] [µg/mL] | CLint scaled at 1 µM [3] [mL/min/kg] | Clearance of Human microsome [3] [mL/min/kg]
Cc1cc(C(F)(F)F)nc(N2CCN(S(=O)(=O)c3ccc4c(c3)OC[C@H]3[C@@H](CN5CC(N)C5)OC(=O)N43)CC2)n1 [Example 025, (3R,3aS)-3-[(3-aminoazetidin-1-yl)methyl]-7-[4-[4-methyl-6-(trifluoromethyl)pyrimidin-2-yl]piperazin-1-yl]sulfonyl-3a,4-dihydro-3H-oxazolo[4,3-c][1,4]benzoxazin-1-one] | 0.91 (≈ 1.56 µM) | 1.82 (≈ 3.12 µM) | 12.2 | –
Cc1cc(C(F)(F)F)nc(N2CCN(S(=O)(=O)c3ccc4c(c3)OC[C@H]3[C@@H](CN5CC(CN)C5)OC(=O)N43)CC2)n1 [Example 026, (3R,3aS)-3-[[3-(aminomethyl)azetidin-1-yl]methyl]-7-[4-[4-methyl-6-(trifluoromethyl)pyrimidin-2-yl]piperazin-1-yl]sulfonyl-3a,4-dihydro-3H-oxazolo[4,3-c][1,4]benzoxazin-1-one] | 1.1 (≈ 1.84 µM) | 1.67 (≈ 2.79 µM) | 10.8 | –
O=C1O[C@@H](CO)[C@H]2COc3cc(S(=O)(=O)N4CCN(c5cc(C(F)(F)C6CCNCC6)cc(Cl)n5)CC4)ccc3N12 [Example 028, (3R,3aR)-7-[4-[6-chloro-4-[difluoro(4-piperidyl)methyl]-2-pyridyl]piperazin-1-yl]sulfonyl-3-(hydroxymethyl)-3a,4-dihydro-3H-oxazolo[4,3-c][1,4]benzoxazin-1-one] | 0.57 (≈ 0.928 µM) | 0.57 (≈ 0.928 µM) | 10.5 | –
O=C1O[C@H](CO)[C@@H]2COc3cc(S(=O)(=O)N4CCN(c5cc(C(F)(F)C6CCNCC6)cc(Cl)n5)CC4)ccc3N12 [Example 029, (3S,3aS)-7-[4-[6-chloro-4-[difluoro(4-piperidyl)methyl]-2-pyridyl]piperazin-1-yl]sulfonyl-3-(hydroxymethyl)-3a,4-dihydro-3H-oxazolo[4,3-c][1,4]benzoxazin-1-one] | 1.1 (≈ 1.79 µM) | 1.14 (≈ 1.85 µM) | 11.6 | –
O=C1O[C@@H](CO)[C@H]2COc3cc(S(=O)(=O)N4CCN(c5cc(C(F)(F)C6C7CNCC76)cc(Cl)n5)CC4)ccc3N12 (stereo partly drawn) [Example 034, (3R,3aR)-7-[4-[4-[3-azabicyclo[3.1.0]hexan-6-yl(difluoro)methyl]-6-chloro-2-pyridyl]piperazin-1-yl]sulfonyl-3-(hydroxymethyl)-3a,4-dihydro-3H-oxazolo[4,3-c][1,4]benzoxazin-1-one] | 0.28 (≈ 0.457 µM) | 0.57 (≈ 0.931 µM) | 12.7 | –
O=C1O[C@@H](CO)[C@H]2COc3cc(S(=O)(=O)N4CCN(c5cc(C(F)(F)C6CNC6)cc(Cl)n5)CC4)ccc3N12 [Example 035, (3R,3aR)-7-[4-[4-[azetidin-3-yl(difluoro)methyl]-6-chloro-2-pyridyl]piperazin-1-yl]sulfonyl-3-(hydroxymethyl)-3a,4-dihydro-3H-oxazolo[4,3-c][1,4]benzoxazin-1-one] | 2.2 (≈ 3.75 µM) | 2.19 (≈ 3.74 µM) | 10.9 | –
O=C1O[C@H](CO)[C@H]2COc3cc(S(=O)(=O)N4CCN(c5cc(C(F)(F)C6CCNCC6)cc(Cl)n5)CC4)ccc3N12 [Example 037, (3S,3aR)-7-[4-[6-chloro-4-[difluoro(4-piperidyl)methyl]-2-pyridyl]piperazin-1-yl]sulfonyl-3-(hydroxymethyl)-3a,4-dihydro-3H-oxazolo[4,3-c][1,4]benzoxazin-1-one] | 1.1 (≈ 1.79 µM) | 1.14 (≈ 1.86 µM) | 10.9 | –
O=C1O[C@@H](CO)[C@@H]2COc3cc(S(=O)(=O)N4CCN(c5cc(C(F)(F)C6CCNCC6)cc(Cl)n5)CC4)ccc3N12 [Example 038, (3R,3aS)-7-[4-[6-chloro-4-[difluoro(4-piperidyl)methyl]-2-pyridyl]piperazin-1-yl]sulfonyl-3-(hydroxymethyl)-3a,4-dihydro-3H-oxazolo[4,3-c][1,4]benzoxazin-1-one] | 0.57 (≈ 0.928 µM) | 0.57 (≈ 0.928 µM) | 11.1 | –
O=C1O[C@@H](CO)[C@H]2COc3cc(S(=O)(=O)N4CCN(c5cc(C(F)(F)C6CC7(CNC7)C6)cc(Cl)n5)CC4)ccc3N12 [Example 039, (3R,3aR)-7-[4-[4-[2-azaspiro[3.3]heptan-6-yl(difluoro)methyl]-6-chloro-2-pyridyl]piperazin-1-yl]sulfonyl-3-(hydroxymethyl)-3a,4-dihydro-3H-oxazolo[4,3-c][1,4]benzoxazin-1-one] | 0.87 (≈ 1.39 µM) | 1.16 (≈ 1.85 µM) | – | 6.2
NC1CCC(Oc2cc(Cl)nc(N3CCN(S(=O)(=O)c4ccc5c(c4)OC[C@@H]4[C@H](CO)OC(=O)N54)CC3)c2)CC1 (stereo partly drawn) [Example 042, (3R,3aR)-7-[4-[4-(4-aminocyclohexoxy)-6-chloro-2-pyridyl]piperazin-1-yl]sulfonyl-3-(hydroxymethyl)-3a,4-dihydro-3H-oxazolo[4,3-c][1,4]benzoxazin-1-one] | 2.2 (≈ 3.7 µM) | 2.21 (≈ 3.72 µM) | 6.7 | –
NC1CCC(Oc2cc(Cl)nc(N3CCN(S(=O)(=O)c4ccc5c(c4)OCC4C(N)CC(=O)N54)CC3)c2)CC1 (stereo not drawn) [Example 043, 3-Amino-7-[4-[4-(4-aminocyclohexoxy)-6-chloro-2-pyridyl]piperazin-1-yl]sulfonyl-2,3,3a,4-tetrahydropyrrolo[2,1-c][1,4]benzoxazin-1-one] | 4.3 (≈ 7.45 µM) | 8.64 (≈ 15 µM) | – | 6.2
NCCCNC(=O)/C=C/C(F)(F)c1cc(Cl)nc(N2CCN(S(=O)(=O)c3ccc4c(c3)OC[C@@H]3[C@H](CO)OC(=O)N43)CC2)c1 [Example 044, (E)-4-[2-[4-[[(3R,3aR)-3-(hydroxymethyl)-1-oxo-3a,4-dihydro-3H-oxazolo[4,3-c][1,4]benzoxazin-7-yl]sulfonyl]piperazin-1-yl]-6-chloro-4-pyridyl]-N-(3-aminopropyl)-4,4-difluoro-but-2-enamide] | 2.4 (≈ 3.65 µM) | 2.41 (≈ 3.67 µM) | 7 | –
NCCCNC(=O)[C@H]1CC[C@H](C(F)(F)c2cc(Cl)nc(N3CCN(S(=O)(=O)c4ccc5c(c4)OCC4C(N)CC(=O)N54)CC3)c2)CC1 (stereo partly drawn) [Example 045, 4-[[2-[4-[(3-Amino-1-oxo-2,3,3a,4-tetrahydropyrrolo[2,1-c][1,4]benzoxazin-7-yl)sulfonyl]piperazin-1-yl]-6-chloro-4-pyridyl]-difluoro-methyl]-N-(3-aminopropyl)cyclohexanecarboxamide] | 0.63 (≈ 0.905 µM) | 0.63 (≈ 0.905 µM) | 8.9 | –
NCCCNC(=O)[C@H]1CC[C@H](C(F)(F)c2cc(Cl)nc(N3CCN(S(=O)(=O)c4ccc5c(c4)OC[C@@H]4[C@H](CO)OC(=O)N54)CC3)c2)CC1 [Example 046, 4-[[2-[4-[[(3R,3aR)-3-(hydroxymethyl)-1-oxo-3a,4-dihydro-3H-oxazolo[4,3-c][1,4]benzoxazin-7-yl]sulfonyl]piperazin-1-yl]-6-chloro-4-pyridyl]-difluoro-methyl]-N-(3-aminopropyl)cyclohexanecarboxamide] | 0.32 (≈ 0.449 µM) | 0.32 (≈ 0.449 µM) | – | 6.2
NCCCN(CCCN)C(=O)[C@H]1CC[C@H](C(F)(F)c2cc(Cl)nc(N3CCN(S(=O)(=O)c4ccc5c(c4)OC[C@H]4[C@H](CO)OC(=O)N54)CC3)c2)CC1 [Example 048, 4-[[2-[4-[[(3R,3aS)-3-(hydroxymethyl)-1-oxo-3a,4-dihydro-3H-oxazolo[4,3-c][1,4]benzoxazin-7-yl]sulfonyl]piperazin-1-yl]-6-chloro-4-pyridyl]-difluoro-methyl]-N,N-bis(3-aminopropyl)cyclohexanecarboxamide] | 0.64 (≈ 0.831 µM) | 0.64 (≈ 0.831 µM) | 12.9 | –
NCCCNC(=O)[C@H]1CC[C@H](C(F)(F)c2cc(Cl)nc(N3CCN(S(=O)(=O)c4ccc5c(c4)OC[C@H]4[C@H](CO)OC(=O)N54)CC3)c2)CC1 [Example 049, 4-[[2-[4-[[(3R,3aS)-3-(hydroxymethyl)-1-oxo-3a,4-dihydro-3H-oxazolo[4,3-c][1,4]benzoxazin-7-yl]sulfonyl]piperazin-1-yl]-6-chloro-4-pyridyl]-difluoro-methyl]-N-(3-aminopropyl)cyclohexanecarboxamide] | 0.3 (≈ 0.421 µM) | 0.29 (≈ 0.407 µM) | – | 6.2
NCCC(=O)NC1CCC(Oc2cc(Cl)nc(N3CCN(S(=O)(=O)c4ccc5c(c4)OC[C@H]4[C@H](CO)OC(=O)N54)CC3)c2)CC1 (stereo partly drawn) [Example 051, N-[4-[[2-[4-[[(3R,3aS)-3-(hydroxymethyl)-1-oxo-3a,4-dihydro-3H-oxazolo[4,3-c][1,4]benzoxazin-7-yl]sulfonyl]piperazin-1-yl]-6-chloro-4-pyridyl]oxy]cyclohexyl]-3-amino-propanamide] | 3.7 (≈ 5.56 µM) | 3.65 (≈ 5.49 µM) | 13.1 | –
